Columns and labels:
[1] = biological target: T1, human toll like receptor 7 (hTLR7) (Homo sapiens, UniProt Q9NYK1); assay: hTLR7 in-vitro functional assay (HEK-Blue hTLR7 SEAP reporter); assay type: cell-based; conditions: HEK-Blue hTLR7 cells, overnight incubation
T1 construct: host or cells: HEK293 (HEK-Blue hTLR7)
T1 sequence (Q9NYK1 27-1049): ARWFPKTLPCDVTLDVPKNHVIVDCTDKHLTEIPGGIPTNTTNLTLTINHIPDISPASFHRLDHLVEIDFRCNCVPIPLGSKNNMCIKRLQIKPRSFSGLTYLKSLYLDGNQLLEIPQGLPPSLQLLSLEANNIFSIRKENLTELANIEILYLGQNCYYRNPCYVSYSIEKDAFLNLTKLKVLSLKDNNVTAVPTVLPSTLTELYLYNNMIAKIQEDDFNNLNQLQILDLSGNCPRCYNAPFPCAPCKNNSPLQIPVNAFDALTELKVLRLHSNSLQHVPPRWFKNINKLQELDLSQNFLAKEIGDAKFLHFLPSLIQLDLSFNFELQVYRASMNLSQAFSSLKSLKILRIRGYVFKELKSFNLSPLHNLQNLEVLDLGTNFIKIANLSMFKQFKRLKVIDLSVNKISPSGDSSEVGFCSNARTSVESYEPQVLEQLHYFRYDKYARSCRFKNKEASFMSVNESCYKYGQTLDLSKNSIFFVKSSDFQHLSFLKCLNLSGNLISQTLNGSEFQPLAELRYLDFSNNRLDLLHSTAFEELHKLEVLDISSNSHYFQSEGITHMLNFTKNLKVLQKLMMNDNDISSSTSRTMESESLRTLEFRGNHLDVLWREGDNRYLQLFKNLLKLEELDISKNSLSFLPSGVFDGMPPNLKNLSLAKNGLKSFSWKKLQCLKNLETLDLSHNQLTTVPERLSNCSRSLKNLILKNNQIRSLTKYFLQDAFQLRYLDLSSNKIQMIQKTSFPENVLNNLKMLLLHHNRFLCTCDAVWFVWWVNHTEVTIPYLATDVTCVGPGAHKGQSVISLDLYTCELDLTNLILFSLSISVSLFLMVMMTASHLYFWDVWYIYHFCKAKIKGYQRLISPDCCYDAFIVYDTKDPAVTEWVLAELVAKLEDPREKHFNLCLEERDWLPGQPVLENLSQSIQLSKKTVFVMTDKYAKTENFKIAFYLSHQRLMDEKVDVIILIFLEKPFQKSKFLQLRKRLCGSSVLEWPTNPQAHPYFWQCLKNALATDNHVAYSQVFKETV

[2] = biological target: T2, human toll like receptor 8 (hTLR8) (Homo sapiens, UniProt Q9NR97); assay: hTLR8 in-vitro functional assay (HEK-Blue hTLR8 SEAP reporter); assay type: cell-based; conditions: HEK-Blue hTLR8 cells, overnight incubation
T2 construct: host or cells: HEK293 (HEK-Blue hTLR8)
T2 sequence (Q9NR97 27-1041): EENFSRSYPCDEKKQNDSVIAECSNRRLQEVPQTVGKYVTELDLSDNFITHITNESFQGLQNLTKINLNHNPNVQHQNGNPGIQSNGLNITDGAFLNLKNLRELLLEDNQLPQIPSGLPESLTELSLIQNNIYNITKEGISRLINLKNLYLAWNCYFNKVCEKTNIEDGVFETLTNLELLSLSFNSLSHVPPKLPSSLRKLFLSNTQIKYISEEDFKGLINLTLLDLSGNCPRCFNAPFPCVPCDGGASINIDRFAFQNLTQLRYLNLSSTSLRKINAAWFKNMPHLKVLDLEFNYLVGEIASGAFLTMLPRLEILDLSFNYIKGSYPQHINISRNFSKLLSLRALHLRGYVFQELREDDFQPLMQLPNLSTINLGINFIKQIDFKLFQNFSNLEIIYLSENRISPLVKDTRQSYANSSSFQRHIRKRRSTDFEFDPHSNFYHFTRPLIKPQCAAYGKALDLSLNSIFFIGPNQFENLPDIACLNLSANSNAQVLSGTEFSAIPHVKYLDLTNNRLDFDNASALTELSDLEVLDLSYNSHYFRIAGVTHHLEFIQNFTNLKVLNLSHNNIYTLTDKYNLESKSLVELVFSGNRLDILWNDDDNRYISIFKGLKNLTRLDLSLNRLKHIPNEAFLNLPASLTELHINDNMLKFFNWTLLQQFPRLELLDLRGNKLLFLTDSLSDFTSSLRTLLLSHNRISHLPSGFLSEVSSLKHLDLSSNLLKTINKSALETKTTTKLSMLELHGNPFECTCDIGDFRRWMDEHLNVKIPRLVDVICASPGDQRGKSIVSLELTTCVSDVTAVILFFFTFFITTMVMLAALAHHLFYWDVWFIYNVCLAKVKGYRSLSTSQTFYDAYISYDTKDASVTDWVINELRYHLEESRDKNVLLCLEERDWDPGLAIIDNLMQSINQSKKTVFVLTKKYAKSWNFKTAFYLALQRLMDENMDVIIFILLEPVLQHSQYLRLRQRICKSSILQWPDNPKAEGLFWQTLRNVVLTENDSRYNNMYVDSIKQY

For `CCCCc1nc2c(N)nc3cc(CCCN4CCN(C(=O)CCOCCOCCOCCOCCOCCOCCOCCOCCOCCOCCOCCOCCOCCOCCOCCOCCOCCOCCOCCOCCOCCOCCOCCOCCNC(=O)CCOCCOCCOCCOCCNC(=O)CCCOc5c(C)c(C)c6c(c5C)CC[C@@](C)(CCC[C@H](C)CCC[C@H](C)CCCC(C)C)O6)CC4)ccc3c2n1CC(C)(CO)CO` [Compound 2, N-{75-[4-(3-{4-amino-2-butyl-1-[3-hydroxy-2-(hydroxymethyl)-2-methylpropyl]-1H-imidazo[4,5-c]quinolin-7-yl}propyl)piperazin-1-yl]-75-oxo-3,6,9,12,15,18,21,24,27,30,33,36,39,42,45,48,51,54,57,60,63,66,69,72-tetracosaoxapentaheptacont-1-yl}-17-oxo-20-({(2R)-2,5,7,8-tetramethyl-2-[(4R,8R)-4,8,12-trimethyltridecyl]-3,4-dihydro-2H-chromen-6-yl}oxy)-4,7,10,13-tetraoxa-16-azaicosan-1-amide], the EC50 [1] was 355 nM and the EC50 [2] was 5.03 µM.
